# Experimental data reported in US12448369B2 (Edgewise Therapeutics, Inc., priority 2023, dated 2025).
# Key:
# [1] = system: Rabbit Psoas myofibrils (skeletal myosin ATPase); assay: Myofibril ATPase assay, rabbit psoas (skeletal) myofibrils; assay type: biochemical
# Outline: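 Rabbit psoas skeletal myofibrils in PIPES/CaCl2/EGTA pCa buffer, pH 7.0. ATPase rate followed by PK-LDH-coupled NADH loss at 340 nm, read every 1.5–2 min for 75 min. Slopes normalized to vehicle (100%) and fitted to a 4-parameter logistic; values are Y75 (25% inhibition) or Y125 (25% activation) concentrations.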
# [2] = system: Porcine atria myofibrils (atrial myosin ATPase); assay: Myofibril ATPase assay, porcine atria myofibrils; assay type: biochemical
# Outline: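 Coupled PK-LDH reaction links ADP from myosin ATPase to NADH loss, read at 340 nm every 1.5-2 min for 75 min. Slopes (mAU/min) normalized to vehicle-only wells (100%) and fit to a 4-parameter logistic; Y75 is the concentration cutting activity by 25%, Y125 is reported for activators.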
# [3] = target: T1, Porcine ventricle myofibrils (ventricular myosin ATPase) (Sus scrofa, UniProt P79293); assay: Myofibril ATPase assay, porcine ventricle myofibrils; assay type: biochemical, porcine (Yucatan minipigs)
# T1 construct: Myofibrils from porcine cardiac muscle was isolated from the left ventricle of Yucatan minipigs; tissue Exemplar Genetics; host or cells: left ventricle of Yucatan minipigs, myofibrils prepared in house
# Outline: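 Left-ventricle myofibrils from Yucatan minipigs were tested with a PK/LDH-coupled system, following NADH loss at 340 nm every 1.5-2 min for 75 min. Slopes were normalized to vehicle wells and fit to a 4-parameter logistic model; values are Y75 (25% ATPase reduction) or Y125 concentrations.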
# [4] = rabbit psoas myofibrils, Y75 value
# [5] = porcine atria myofibrils, Y75 value (75% activity relative to no compound)
# [6] = porcine ventricle myofibrils, Y75 value
# [7] = Y75 value (no ‡ mark), rabbit psoas myofibrils
# [8] = Y75 value (no ‡ mark), porcine atria myofibrils
# [9] = Y75 value (no ‡ mark), porcine ventricle myofibrils
# [10] = ‡ Y125 value, not a Y75 value (125% activity relative to no compound), porcine ventricle myofibrils
# T1 sequence (P79293 whole entry): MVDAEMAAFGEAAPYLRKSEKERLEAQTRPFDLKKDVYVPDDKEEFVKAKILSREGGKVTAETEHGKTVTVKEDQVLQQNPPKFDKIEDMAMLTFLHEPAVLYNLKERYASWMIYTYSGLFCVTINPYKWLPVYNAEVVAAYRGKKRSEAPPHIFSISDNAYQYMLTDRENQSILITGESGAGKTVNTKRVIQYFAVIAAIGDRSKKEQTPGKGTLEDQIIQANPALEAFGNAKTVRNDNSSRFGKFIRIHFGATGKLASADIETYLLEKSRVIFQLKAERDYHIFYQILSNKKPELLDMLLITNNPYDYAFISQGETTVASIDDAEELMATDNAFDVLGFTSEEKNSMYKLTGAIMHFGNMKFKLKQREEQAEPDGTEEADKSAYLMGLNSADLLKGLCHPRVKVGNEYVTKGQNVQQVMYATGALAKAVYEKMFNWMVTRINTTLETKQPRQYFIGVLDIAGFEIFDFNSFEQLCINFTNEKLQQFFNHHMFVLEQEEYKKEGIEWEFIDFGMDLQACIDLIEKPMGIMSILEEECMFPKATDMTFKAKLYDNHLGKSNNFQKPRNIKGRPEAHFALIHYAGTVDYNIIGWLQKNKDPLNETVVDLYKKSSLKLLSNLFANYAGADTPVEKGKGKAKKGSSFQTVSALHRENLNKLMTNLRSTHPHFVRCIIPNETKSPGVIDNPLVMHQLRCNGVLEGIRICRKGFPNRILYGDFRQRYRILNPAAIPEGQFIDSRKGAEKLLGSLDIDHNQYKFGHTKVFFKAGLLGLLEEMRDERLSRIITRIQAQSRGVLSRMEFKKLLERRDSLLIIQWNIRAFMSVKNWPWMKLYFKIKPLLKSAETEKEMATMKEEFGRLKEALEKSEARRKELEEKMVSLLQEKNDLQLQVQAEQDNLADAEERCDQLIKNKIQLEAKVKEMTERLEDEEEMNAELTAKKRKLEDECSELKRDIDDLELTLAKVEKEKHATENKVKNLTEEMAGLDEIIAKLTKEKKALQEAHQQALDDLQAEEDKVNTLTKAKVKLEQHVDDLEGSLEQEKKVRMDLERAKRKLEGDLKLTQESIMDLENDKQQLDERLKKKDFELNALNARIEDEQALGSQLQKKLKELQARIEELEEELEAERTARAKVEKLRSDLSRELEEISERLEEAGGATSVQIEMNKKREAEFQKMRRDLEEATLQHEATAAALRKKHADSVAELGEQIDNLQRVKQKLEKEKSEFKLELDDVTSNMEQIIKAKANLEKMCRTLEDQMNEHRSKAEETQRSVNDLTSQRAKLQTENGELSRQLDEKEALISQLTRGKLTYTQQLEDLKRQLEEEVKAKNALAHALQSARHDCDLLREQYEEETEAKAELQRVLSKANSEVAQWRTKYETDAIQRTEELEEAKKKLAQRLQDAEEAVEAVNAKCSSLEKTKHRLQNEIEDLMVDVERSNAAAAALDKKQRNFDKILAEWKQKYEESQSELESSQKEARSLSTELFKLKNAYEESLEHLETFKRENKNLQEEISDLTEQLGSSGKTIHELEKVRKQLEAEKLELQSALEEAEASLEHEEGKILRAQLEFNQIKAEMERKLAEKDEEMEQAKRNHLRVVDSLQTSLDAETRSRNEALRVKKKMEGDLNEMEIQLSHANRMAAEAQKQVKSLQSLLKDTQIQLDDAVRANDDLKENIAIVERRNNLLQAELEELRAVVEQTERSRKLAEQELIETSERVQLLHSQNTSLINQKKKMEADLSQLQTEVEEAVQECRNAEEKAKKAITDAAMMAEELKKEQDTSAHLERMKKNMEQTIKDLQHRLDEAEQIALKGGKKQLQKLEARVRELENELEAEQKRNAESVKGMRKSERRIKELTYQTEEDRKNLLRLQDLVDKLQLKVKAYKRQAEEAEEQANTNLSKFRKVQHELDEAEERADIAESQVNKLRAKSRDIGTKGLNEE
smiles,measurement,setting,value
"Cc1c(CC(=O)N[C@@H](C)c2ncc(F)cc2F)c(=O)[nH]c2ccc(O)nc12 (single isomer, unassigned) [compound 223]",Skeletal EC25,[1]; [4],16.17 µM
same,Atrial EC25,[2]; [5],12.99 µM
same,Ventricular EC25,[3]; [6],61.19 µM
CCOc1ccc2[nH]c(=O)c(CC(=O)N[C@@H](C)c3ccc(F)cc3F)c(C)c2n1 [compound 414],Skeletal EC25,[1]; [4],0.03 µM
same,Atrial EC25,[2]; [5],0.16 µM
same,Ventricular EC25,[3]; [6],13.93 µM
"Cc1c(C2(C(=O)N[C@H](C)c3ncc(C#N)cc3F)CC2)c(=O)[nH]c2ccc(F)c(C(F)(F)F)c12 (single isomer, unassigned) [compound 4801]",Skeletal EC25,[1]; [7],0.28 µM
same,Atrial EC25,[2]; [8],0.28 µM
same,Ventricular EC25,[3]; [9],100.00 µM
Cc1c(CC(=O)N[C@@H](CO)c2ccc(F)cc2F)c(=O)[nH]c2ccc(C(F)(F)F)nc12 [compound 217],Skeletal EC25,[1]; [4],0.71 µM
same,Atrial EC25,[2]; [5],0.36 µM
same,Ventricular EC25,[3]; [6],6.79 µM
"C[C@H](NC(=O)[C@H](C)c1cc2c(F)cccc2[nH]c1=O)c1ccc(F)cc1F (single isomer, unassigned) [compound 103]",Skeletal EC25,[1]; [7],1.64 µM
same,Atrial EC25,[2]; [8],1.13 µM
same,Ventricular EC25,[3]; [9],100.00 µM
"Cc1c([C@@H](C)C(=O)N[C@H](C)c2ncc(C#N)cc2F)c(=O)[nH]c2ccc(F)c(F)c12 (relative stereo) [compound 2600, Rel-(2R*)-N-[(1R)-1-(5-cyano-3-fluoropyridin-2-yl)ethyl]-2-(5,6-difluoro-4-methyl-2-oxo-1H-quinolin-3-yl) propanamide]",Skeletal EC25,[1]; [7],100.00 µM
same,Atrial EC25,[2]; [8],0.67 µM
same,Ventricular EC25,[3]; [9],100.00 µM
"Cc1c(CC(=O)N[C@H](C)c2ncc(F)cc2F)c(=O)[nH]c2ccc(O)nc12 (single isomer, unassigned) [compound 222]",Skeletal EC25,[1]; [4],100.00 µM
same,Atrial EC25,[2]; [5],100.00 µM
same,Ventricular EC25,[3]; [6],100.00 µM
C[C@H](NC(=O)Cc1cc2c(OCC(F)(F)F)nccc2[nH]c1=O)c1ccc(F)cc1F [compound 436],Skeletal EC25,[1]; [4],12.92 µM
same,Atrial EC25,[2]; [5],100.00 µM
same,Ventricular EC25,[3]; [6],100.00 µM
Cc1nccc2[nH]c(=O)c(CC(=O)N[C@@H](C)c3ccc(F)cc3F)c(C#N)c12 [compound 159],Skeletal EC25,[1]; [4],0.11 µM
same,Atrial EC25,[2]; [5],1.17 µM
same,Ventricular EC25,[3]; [6],6.35 µM
Cc1nccc2[nH]c(=O)c(CC(=O)N[C@@H](C)c3ccc(F)cc3F)c(C(F)(F)F)c12 [compound 430],Skeletal EC25,[1]; [4],0.25 µM
same,Atrial EC25,[2]; [5],0.38 µM
same,Ventricular EC25,[3]; [6],11.63 µM
"Cc1cccc([C@@H](CO)NC(=O)Cc2c(C)c3c(C)nccc3[nH]c2=O)c1 (single isomer, unassigned) [compound 294]",Skeletal EC25,[1]; [4],100.00 µM
same,Atrial EC25,[2]; [5],100.00 µM
same,Ventricular EC25,[3]; [6],100.00 µM
"Cc1nccc2[nH]c(=O)c([C@@H](C)C(=O)N[C@@H](C)c3ncc(C#N)cc3F)c(C)c12 (single isomer, unassigned) [compound 193]",Skeletal EC25,[1]; [4],0.75 µM
same,Atrial EC25,[2]; [5],0.47 µM
same,Ventricular EC25,[3]; [6],5.94 µM
C[C@@H](NC(=O)Cc1c(C2CC2)c2cc(F)ccc2[nH]c1=O)c1ncc(C#N)cc1F [compound 39],Skeletal EC25,[1]; [7],100.00 µM
same,Atrial EC25,[2]; [8],100.00 µM
same,Ventricular EC25,[3]; [9],100.00 µM
Cc1c(CC(=O)N[C@H](CO)c2ccc(C#N)cc2F)c(=O)[nH]c2ccc(F)c(C3CC3)c12 [compound 71],Skeletal EC25,[1]; [7],0.23 µM
same,Atrial EC25,[2]; [8],1.10 µM
same,Ventricular EC25,[3]; [9],8.50 µM
"C[C@H](NC(=O)C(F)(F)c1cc2c(F)c(F)ccc2[nH]c1=O)c1cccc(C#N)n1 (single isomer, unassigned) [compound 2572]",Skeletal EC25,[1]; [7],100.00 µM
same,Atrial EC25,[2]; [8],100.00 µM
same,Ventricular EC25,[3]; [10],100.00‡ μM
"CC(NC(=O)C1(c2cc3c(F)c(F)ccc3[nH]c2=O)CC1)c1cccc(C#N)n1 (single isomer, unassigned) [Compound 2570]",Skeletal EC25,"[1]; ‡ Y125 value, not a Y75 value (125% activity relative to no compound), rabbit psoas myofibrils",26.03‡ μM
same,Atrial EC25,"[2]; ‡ Y125 value, not a Y75 value (125% activity relative to no compound), porcine atria myofibrils",100.00‡ μM
same,Ventricular EC25,[3]; [10],63.85‡ μM
Cc1ccncc1[C@H](C)NC(=O)Cc1c(C)c2cc(F)ccc2[nH]c1=O [compound 1049],Skeletal EC25,[1]; [7],29 µM
same,Atrial EC25,[2]; [8],100.00 µM
same,Ventricular EC25,[3]; [9],100.00 µM
Cc1c(CC(=O)N[C@@H](CO)c2ncc(F)cc2F)c(=O)[nH]c2ccc(C#N)nc12 [compound 260],Skeletal EC25,[1]; [4],33.76 µM
same,Atrial EC25,[2]; [5],2.40 µM
same,Ventricular EC25,[3]; [6],100.00 µM
Cc1c(CC(=O)N[C@@H](C)c2ncc(C#N)cc2F)c(=O)[nH]c2ccc(F)cc12 [compound 1107],Skeletal EC25,[1]; [7],0.03 µM
same,Atrial EC25,[2]; [8],0.12 µM
same,Ventricular EC25,[3]; [9],0.15 µM
Cc1nc(C#N)ncc1[C@@H](C)NC(=O)Cc1c(C)c2c(F)c(F)ccc2[nH]c1=O [compound 1131],Skeletal EC25,[1]; [7],0.53 µM
same,Atrial EC25,[2]; [8],0.35 µM
same,Ventricular EC25,[3]; [9],0.89 µM
"Cc1c(C(F)(F)C(=O)N[C@@H](C)c2ncc(C#N)cc2F)c(=O)[nH]c2ccc(F)cc12 (single isomer, unassigned) [compound 2607]",Skeletal EC25,[1]; [7],0.04 µM
same,Atrial EC25,[2]; [8],0.07 µM
same,Ventricular EC25,[3]; [9],0.17 µM
"C[C@@H](NC(=O)Cc1cc2cc(F)ccc2[nH]c1=O)c1ncc(C#N)cn1 (single isomer, unassigned) [compound 2029]",Skeletal EC25,[1]; [7],3.21 µM
same,Atrial EC25,[2]; [8],1.26 µM
same,Ventricular EC25,[3]; [9],18.01 µM
"O=C(Cc1cc2c(F)c(F)ccc2[nH]c1=O)N[C@H]1COc2ncccc21 (single isomer, unassigned) [compound 64]",Skeletal EC25,[1]; [7],83.26 µM
same,Atrial EC25,[2]; [8],100.00 µM
same,Ventricular EC25,[3]; [9],100.00 µM
"Cc1c(C(F)(F)C(=O)N[C@@H](C)c2ccc(C#N)nn2)c(=O)[nH]c2ccc(F)cc12 (single isomer, unassigned) [compound 2556]",Skeletal EC25,[1]; [7],5.17 µM
same,Atrial EC25,[2]; [8],6.56 µM
same,Ventricular EC25,[3]; [9],16.01 µM
"Cc1nccc2[nH]c(=O)c(CC(=O)N[C@@H](C)c3ccc(O)nc3)c(C)c12 (single isomer, unassigned) [compound 296]",Skeletal EC25,[1]; [4],100.00 µM
same,Atrial EC25,[2]; [5],88.12 µM
same,Ventricular EC25,[3]; [6],100.00 µM
"Cc1c(C(F)(F)C(=O)N[C@H](C)c2ncc(C#N)cn2)c(=O)[nH]c2ccc(F)cc12 (single isomer, unassigned) [compound 2594]",Skeletal EC25,[1]; [7],0.33 µM
same,Atrial EC25,[2]; [8],0.23 µM
same,Ventricular EC25,[3]; [9],0.33 µM
Cc1c(CC(=O)N[C@@H](C)c2ncc(C#N)cc2F)c(=O)[nH]c2ccc(F)c(C#N)c12 [compound 32],Skeletal EC25,[1]; [7],0.01 µM
same,Atrial EC25,[2]; [8],0.05 µM
same,Ventricular EC25,[3]; [9],0.04 µM
"Cc1c(C(F)(F)C(=O)N[C@H](CO)c2ncc(C#N)cc2F)c(=O)[nH]c2ccnc(C#N)c12 (single isomer, unassigned) [compound 3502]",Skeletal EC25,[1]; [4],0.08 µM
same,Atrial EC25,[2]; [5],0.15 µM
same,Ventricular EC25,[3]; [6],0.31 µM
"CC(NC(=O)Cc1cc2c(F)c(F)ccc2[nH]c1=O)c1nc(C#N)cs1 (single isomer, unassigned) [compound 4009, N-(1-(4-cyanothiazol-2-yl)ethyl)-2-(5,6-difluoro-2-oxo-1,2-dihydroquinolin-3-yl)acetamide]",Skeletal EC25,"[1]; Y75 value: concentration required to reduce myosin ATP-ase activity by 25%, Rabbit Psoas Prep pCa 25 GEOM_MEAN",1.49 µM
same,Atrial EC25,"[2]; Y75 value: concentration required to reduce myosin ATP-ase activity by 25%, Porcine Atria Prep pCa 25 GEOM_MEAN",2.28 µM
same,Ventricular EC25,"[3]; Y75 value: concentration required to reduce myosin ATP-ase activity by 25%, Porcine Ventricle Prep pCa 25 GEOM_MEAN",0.91 µM
"Cc1nc([C@@H](C)NC(=O)Cc2c(C)c3c(C)c(F)ccc3[nH]c2=O)ncc1C#N (single isomer, unassigned) [compound 4837]",Skeletal EC25,[1]; [7],0.21 µM
same,Atrial EC25,[2]; [8],1.90 µM
same,Ventricular EC25,[3]; [9],3.67 µM
Cc1nccc2[nH]c(=O)c(CC(=O)N[C@@H](C)c3cnc(C#N)cn3)c(C)c12 [compound 487],Skeletal EC25,[1]; [4],3.42 µM
same,Atrial EC25,[2]; [5],100.00 µM
same,Ventricular EC25,[3]; [6],3.42 µM
Cc1nccc2[nH]c(=O)c(CC(=O)N[C@@H](C)c3ccc(C#N)cc3F)c(C#N)c12 [compound 154],Skeletal EC25,[1]; [4],0.04 µM
same,Atrial EC25,[2]; [5],0.18 µM
same,Ventricular EC25,[3]; [6],0.54 µM
Cc1c(CC(=O)N[C@@H](C)c2ccc(C#N)cn2)c(=O)[nH]c2ccc(F)c(C#N)c12 [compound 50],Skeletal EC25,[1]; [7],0.02 µM
same,Atrial EC25,[2]; [8],0.05 µM
same,Ventricular EC25,[3]; [9],0.23 µM
Cc1c(CC(=O)N[C@H](CO)c2ccc(F)cc2F)c(=O)[nH]c2ccc(C(F)(F)F)nc12 [compound 216],Skeletal EC25,[1]; [4],100.00 µM
same,Atrial EC25,[2]; [5],100.00 µM
same,Ventricular EC25,[3]; [6],100.00 µM
